Data on 18 compounds can be found in patent US12297196B2, “Condensed bicyclic heterocyclic derivatives as pest control agents” (Bayer Aktiengesellschaft, priority 2019, dated 2025).

Data set [1] in a line: log P by HPLC on reversed-phase column (C18), neutral range. It counts as physicochemical. Particulars: ammonium carbonate in water / acetonitrile. The method, then:
The log P values were determined according to EEC Directive 79/831 Annex V.A8 by HPLC (high-performance liquid chromatography) on a reversed-phase column (C18) using the following methods: ^[b] The log P value is determined by LC-UV measurement in the neutral range using 79 mg/l ammonium carbonate in water and acetonitrile as mobile phases (linear gradient from 10% acetonitrile to 95% acetonitrile). Calibration was carried out using a homologous series of straight-chain alkan-2-ones (having 3 to 16 carbon atoms) with known log P values. The values between successive alkanones are determined by linear regression.

Data set [2] has as its system green peach aphid (Myzus persicae). In words: Myzus persicae spray test. Format: in vivo. To be noted: foliar, 120 h, after 5 days, Chinese cabbage leaf disks, read-out: efficacy in %. The protocol:
Myzus Persicae—Spray Test
(§1) • Solvent: 78 parts by weight of acetone • 1.5 parts by weight of dimethylformamide • Emulsifier: alkylaryl polyglycol ether
(§2) To produce a suitable active compound formulation, 1 part by weight of active compound is dissolved using the stated parts by weight of solvent and made up with water containing an emulsifier concentration of 1000 ppm until the desired concentration is attained. To produce further test concentrations, the formulation is diluted with emulsifier-containing water.
Disks of Chinese cabbage leaves (Brassica pekinensis) infested by all stages of the green peach aphid (Myzus persicae) are sprayed with an active compound formulation of the desired concentration.
After 5 days, the efficacy in % is determined. 100% means that all the aphids have been killed; 0% means that no aphids have been killed.

For data set [3], the system named is green peach aphids (Myzus persicae). Nature of the data set: Myzus persicae oral test. To be noted: 120 h, after 5 days, read-out: efficacy in %. Format: in vivo. The protocol:
Myzus Persicae—Oral Test • Solvent: 100 parts by weight of acetone To produce a suitable active compound formulation, 1 part by weight of active compound is dissolved using the specified parts by weight of solvent and made up with water until the desired concentration is attained. 50 μl of the active compound preparation are transferred into microtitre plates and made up to a final volume of 200 μl with 150 μl of IPL41 insect medium (33%+15% sugar). Subsequently, the plates are sealed with parafilm, which a mixed population of green peach aphids (Myzus persicae) within a second microtitre plate is able to puncture and imbibe the solution through. After 5 days, the efficacy in % is determined. 100% means that all the aphids have been killed; 0% means that no aphids have been killed.

Data set [4] relates to mustard beetle Phaedon cochleariae. In words: Phaedon cochleariae spray test. It counts as in vivo. To be noted: 100 g/ha; after 7 days; Chinese cabbage leaf disks, larvae. The method, then:
Phaedon Cochleariae—Spray Test
(§3) • Solvent: 78.0 parts by weight of acetone • 1.5 parts by weight of dimethylformamide • Emulsifier: alkylaryl polyglycol ether
as §2
Disks of Chinese cabbage leaves (Brassica pekinensis) are sprayed with an active compound formulation of the desired concentration and, after drying, populated with larvae of the mustard beetle Phaedon cochleariae).
After 7 days, the efficacy in % is determined. 100% means that all the beetle larvae have been killed; 0% means that no beetle larvae have been killed.

For data set [5], the system named is fall armyworm (Spodoptera frugiperda). Nature of the data set: Spodoptera frugiperda spray test. Particulars: foliar, 168 h, after 7 days, corn leaf disks, caterpillars, read-out: efficacy in %. It counts as in vivo. The protocol:
Spodoptera Fruaiperda—Spray Test
as §3, §2
Leaf disks of corn (Zea mays) are sprayed with an active compound formulation of the desired concentration and, after drying, populated with caterpillars of the fall armyworm (Spodoptera frugiperda).
After 7 days, the efficacy in % is determined. 100% means that all the caterpillars have been killed; 0% means that no caterpillar has been killed.

The test system of data set [6] is green peach aphid (Myzus persicae). In words: Comparative experiment: Myzus persicae spray test (MYZUPE). Particulars: 120 h, 5 dat, read-out: % efficacy; for Emax at 4 g/ha: 4 g of ai/ha; for Emax at 20 g/ha: 20 g of ai/ha; for Emax at 100 g/ha: 100 g of ai/ha. It counts as in vivo. The method, then: Myzus Persicae—Spray Test (MYZUPE)
as §3, §2
Disks of Chinese cabbage leaves (Brassica pekinensis) infested by all stages of the green peach aphid (Myzus persicae) are sprayed with an active compound preparation of the desired concentration.
After the desired period of time, the efficacy in % is determined. 100% means that all the aphids have been killed; 0% means that no aphids have been killed.

For data set [7], the system named is mustard beetle (Phaedon cochleariae). Nature of the data set: Comparative experiment: Phaedon cochleariae spray test (PHAECO). To be noted: 168 h, 7 dat, read-out: % efficacy; for Emax at 4 g/ha: 4 g of ai/ha; for Emax at 20 g/ha: 20 g of ai/ha. It counts as in vivo. The method, then: Phaedon Cochleariae—Spray Test (PHAECO)
as §3, §2
Disks of Chinese cabbage leaves (Brassica pekinensis) are sprayed with an active compound formulation of the desired concentration and, after drying, populated with larvae of the mustard beetle (Phaedon cochleariae).
After the desired period of time, the efficacy in % is determined. 100% means that all the beetle larvae have been killed; 0% means that no beetle larvae have been killed.

Data set [8] relates to armyworm (Spodoptera frugiperda). Nature of the data set: Comparative experiment: Spodoptera frugiperda spray test (SPODFR). Format: in vivo. Particulars: 168 h, 7 dat, read-out: % efficacy; for Emax at 0.8 g/ha: 0.8 g of ai/ha; for Emax at 4 g/ha: 4 g of ai/ha; for Emax at 20 g/ha: 20 g of ai/ha. The protocol:
Spodoptera Fruaiperda—Spray Test (SPODFR)
as §3, §2
Leaf disks of corn (Zea mays) are sprayed with an active compound formulation of the desired concentration and, after drying, populated with caterpillars of the armyworm (Spodoptera frugiperda).
After the desired period of time, the efficacy in % is determined. 100% means that all the caterpillars have been killed; 0% means that no caterpillar has been killed.

The subject of another data set is Diabrotica balteata. In words: Diabrotica balteata spray test. It counts as in vivo. To be noted: topical, 168 h, 100 g/ha (=32 μg/cavity), after 7 days, sprayed germinated wheat grains, beetle larvae, read-out: efficacy in %. The method, then:
Diabrotica balteata—Spray Test
as §1, §2
Pre-swollen wheat grains (Triticum aestivum) are incubated in a multiwell plate filled with agar and a little water for one day (5 seed grains per cavity). The germinated wheat grains are sprayed with an active compound formulation of the desired concentration. Subsequently, each cavity is infected with 10−20 beetle larvae of Diabrotica balteata.
After 7 days, the efficacy in % is determined. 100% means that all wheat plants have grown as in the untreated, uninfected control; 0% means that no wheat plant has grown.

What is called chromatographic logP is a lipophilicity value derived from retention on a column. Read a high chromatographic logP as higher lipophilicity. Regarding `CCSc1c(-c2nc3cc(C(F)(F)F)cnc3n2C)ncc2cc(C3(C#N)CC3)ccc12` [1-[4-Ethylsulfanyl-3-[3-methyl-6-(trifluoromethyl)imidazo[4,5-b]pyridin-2-yl]-7-isoquinolyl]cyclopropanecarbonitrile], the chromatographic logP in [1] came to 3.67.
The same measure, in the same setting: for `CCSc1c(-c2nc3cc(C(F)(F)F)cnc3n2C)ncc2cc(CC#N)ccc12` [2-[4-Ethylsulfanyl-3-[3-methyl-6-(trifluoromethyl)imidazo[4,5-b]pyridin-2-yl]-7-isoquinolyl]acetonitrile] the value was 3.22; for `CCSc1c(-c2nc3cc(C(F)(F)F)cnc3n2C)ncc2cc(Br)ccc12` [7-Bromo-4-ethylsulfanyl-3-[3-methyl-6-(trifluoromethyl)imidazo[4,5-b]pyridin-2-yl]isoquinoline], 4.36.
In the case of `CCS(=O)(=O)c1c(-c2nc3cc(C(F)(F)F)cnc3n2C)ncc2cc(C3(C#N)CC3)ccc12` [Example I-1, 1-[4-Ethylsulfonyl-3-[3-methyl-6-(trifluoromethy)imidazo[4,5-b]pyridin-2-yl]-7-isoquinolyl]cyclopropanecarbonitrile], in data set [2], the pest or weed control at 100 g/ha came out at 90%. In addition, in data set [3], the pest or weed control at 0.8 ppm came to 90% and the pest or weed control at 4 ppm came to 100%. This compound gave an efficacy in % in data set [4] of 100%. Also, the pest or weed control at 100 g/ha in data set [5] came to 100%. In [6], the Emax at 4 g/ha stood at 70%, the Emax at 20 g/ha was found to be 90% and the Emax at 100 g/ha came out at 90%. Moreover, in data set [7], the Emax at 4 g/ha turned out to be 100% and the Emax at 20 g/ha is 100%. Also, in [8], the Emax at 0.8 g/ha was 83%, the Emax at 4 g/ha worked out at 100% and the Emax at 20 g/ha came out at 100%. In data set [1], this compound showed a chromatographic logP of 3.02.
As for `CCS(=O)(=O)c1c(-c2nc3cc(C(F)(F)F)ncc3n2C)ncc2cc(C3(C#N)CC3)ccc12` [Example I-2], the pest or weed control at 100 g/ha in the data set on Diabrotica balteata was found to be 100%; in [2] it was 90%; in [5] it was 100%. Moreover, the pest or weed control at 0.8 ppm in data set [3] worked out at 90%. In addition, the pest or weed control at 4 ppm in data set [3] is 100%.
Consider `CCS(=O)(=O)c1c(-c2nc3cc(C(F)(F)C(F)(F)F)ccc3o2)ncc2cc(C3(C#N)CC3)ccc12` [Example I-3], for which the pest or weed control at 100 g/ha (in the data set on Diabrotica balteata; in [5]) was 100% throughout.
`CCS(=O)(=O)c1c(-c2nc3cc(C(F)(F)C(F)(F)F)cnc3n2C)ncc2cc(C3(C#N)CC3)ccc12` [Example I-4]: the pest or weed control at 100 g/ha (in the data set on Diabrotica balteata; in data set [2]; in data set [5]) was 100% throughout. For the same compound, the pest or weed control at 0.8 ppm in [3] was determined as 100%. The pest or weed control at 4 ppm in data set [3] is 100%.
Take `CCS(=O)(=O)c1c(-c2nc3cc(OC(F)(F)C(F)(F)F)cnc3n2C)ncc2cc(C3(C#N)CC3)ccc12` [Example I-5]: the pest or weed control at 100 g/ha is 90% in data set [2] and 100% in data set [5]. Also, the pest or weed control at 4 ppm in data set [3] turned out to be 100%.
For the compound `CCS(=O)(=O)c1c(-c2nc3cc(C(F)(F)F)ccc3n2C)ncc2cc(C3(C#N)CC3)ccc12` [Example I-6], the pest or weed control at 100 g/ha with Diabrotica balteata stood at 100%; in data set [2], 90%; in data set [5], 100%. Further, in [3], the pest or weed control at 4 ppm came to 100%.
For `CCS(=O)(=O)c1c(-c2nc3cc(S(=O)(=O)C(F)(F)F)ccc3o2)ncc2cc(C3(C#N)CC3)ccc12` [Example I-7], the pest or weed control at 100 g/ha (in the data set with Diabrotica balteata; in [5]) was 100% each time.
As to `CCS(=O)(=O)c1c(-c2nc3cc(OC(F)(F)F)ccc3o2)ncc2cc(C3(C#N)CC3)ccc12` [Example I-8], the pest or weed control at 100 g/ha (in the data set with Diabrotica balteata; in data set [5]) was 100% throughout.
For the compound `CCS(=O)(=O)c1c(-c2nc3cc(C(F)(F)C(F)(F)F)nnc3n2C)ncc2cc(C3(C#N)CC3)ccc12` [Example I-10], the pest or weed control at 100 g/ha (with Diabrotica balteata; in data set [2]; in [5]) was 100% each time. The pest or weed control at 0.8 ppm in data set [3] was 90%.
Take `CCS(=O)(=O)c1c(-c2nc3cc(OC(F)(F)F)cnc3n2C)ncc2cc(C3(C#N)CC3)ccc12` [Example I-11]: the pest or weed control at 100 g/ha (in the data set with Diabrotica balteata; in data set [2]; in data set [5]) was 100% throughout. Further, the pest or weed control at 0.8 ppm in [3] turned out to be 100%. For the same compound, the pest or weed control at 4 ppm in data set [3] is 100%.
Consider `CCS(=O)(=O)c1c(-c2nc3cc(OC(F)(F)F)ccc3n2C)ncc2cc(C3(C#N)CC3)ccc12` [Example I-12], for which the pest or weed control at 100 g/ha (in the data set with Diabrotica balteata; in [2]; in data set [5]) was 100% each time. Moreover, the pest or weed control at 0.8 ppm in data set [3] was 90%. Further, the pest or weed control at 4 ppm in data set [3] worked out at 100%.
In the case of `CCS(=O)(=O)c1c(-c2nc3cc(C(F)(F)C(F)(F)F)ncc3n2C)ncc2cc(C3(C#N)CC3)ccc12` [Example I-13], the pest or weed control at 100 g/ha (in the data set with Diabrotica balteata; in [2]; in [5]) was 100% throughout. Besides, the pest or weed control at 0.8 ppm in [3] stood at 100%. Further, the pest or weed control at 4 ppm in data set [3] was determined as 100%.
With `CCS(=O)(=O)c1c(-c2nc3cc(C(F)(F)C(F)F)cnc3n2C)ncc2cc(C3(C#N)CC3)ccc12` [Example I-14], the pest or weed control at 100 g/ha (in the data set on Diabrotica balteata; in data set [2]; in [5]) was 100% in each case. In data set [3], the pest or weed control at 0.8 ppm was 100%. The pest or weed control at 4 ppm in data set [3] turned out to be 100%.
On to `CCS(=O)(=O)c1c(-c2nc3cc(C(F)(F)F)cnc3n2C)ncc2ccccc12` [I′-47, reference compound], for which, in [7], the Emax at 4 g/ha was 0% and the Emax at 20 g/ha is 67%. Besides, in [8], the Emax at 0.8 g/ha amounted to 0%, the Emax at 4 g/ha was 33% and the Emax at 20 g/ha turned out to be 67%.
Consider `CCS(=O)(=O)c1c(-c2nc3cc(C(F)(F)F)cnc3n2C)ncc2cc(C(F)(F)F)ccc12` [I′-51, reference compound], for which, in data set [6], the Emax at 4 g/ha came out at 0%, the Emax at 20 g/ha is 0% and the Emax at 100 g/ha came to 90%.
